According to patent US11191820B2, “Method for inducing early T memory response with short peptides anti-tumor vaccine” (OSE IMMUNOTHERAPEUTICS, priority 2015, dated 2021):

Tests used:
Format in all cases: in vivo, human
central memory T cells [1] = assay: Cultured IFN-γ ELISPOT after 10-day in vitro stimulation of PBMC, phase 1/2 colon cancer trial of OSE-2101; parameters: key to net SFC of vaccine positive CTL responses: —, indicates SFC response did not meet criteria and vaccine response was negative; settings: for Mean SFC: 10 colon patients
Description: (§1) Clinical study design. Both trials were designed as phase 1/2, open label, multi-center, single dose, multiple administration studies to evaluate the safety and immunogenicity of the OSE-2101 immunotherapy. Patients were treated with 1 ml OSE-2101 every 3 weeks for a total of six doses. Each dose was administered subcutaneously in the same vicinity in the deltoid or upper thigh region, or at a contralateral site if local side-effects were observed. The study duration for each completed patient was 18 weeks. Clinical responses or patient survival were not measured in either phase 1/2 studies.
(§2) Clinical sample processing. Blood or leukapheresis product was obtained from patients at the pre-treatment, the Week 9 and Week 18 time points, 3 weeks after the third and sixth dose of OSE-2101 respectively. Peripheral blood mononuclear cells (PBMC) were isolated from samples within 24 hours of collection using a FICOLL-PAQUE density gradient and cryopreserved in containers designed to ensure optimal freezing (Mr. Frosty, Nalgene). For use, cells were rapidly thawed at 37° C. then transferred to human AB serum-containing medium for work-up.
(§3) Measurement of central T memory cells responses and T effector memory cells. The CTL responses in 16 total patients (10 colon and six NSCLC) were monitored for CTL responses against each epitope and against the wild-type epitope of epitopes analogs. For each patient, the pre-treatment, Week 9 and Week 18 time points were batch-tested in the same experiment to allow pre- versus post-treatment response comparison in the same experiment. Central T memory cells responses were measured using an IFN-γ enzyme-linked immunospot (cultured ELISPOT) assay following in vitro stimulation of PBMC for 10 days with each vaccine epitope. Briefly, PBMC from each time point were stimulated on day 0 with 10 μg/ml of each epitope individually in replicate in 48-well culture plates (2×10^6 PBMC/well). All cultures were fed with rIL-2 (Endogen, Woburn, Mass.; 10 U/ml final concentration) on days 1, 4 and 7. Ten days after initiation of culture, cells were harvested and tested for activity against specific vaccine peptides and corresponding wild-type peptides of vaccine analogs in the T memory ELISPOT assay. Cells were tested in Millipore IP 96-well plates pre-coated with mouse anti-human IFN-γ antibody (Mabtech USA, Cincinnati, Ohio). Five×10^4 cells and 1.25×10^4 cells from each culture were plated in triplicate wells together with 10^5 irradiated autologous PBMC and 10 μg/ml peptide. As a control, CTL were also tested against an irrelevant HLA-A2.1-binding HBV peptide. After 20 hours incubation, T memory ELISPOT plates were developed by performing sequential incubations with biotinylated anti-human IFN-γ antibody (Mabtech USA), Avidin-Peroxidase Complex (APC, Vector Laboratories, Burlingame, Calif.), and 3-amino-9-ethyl carbazole (AEC) substrate (Sigma Aldrich, St. Louis, Mo.). Spot-forming cells (SFC) were enumerated using a computer-assisted image analysis system (Zeiss KS ELISPOT Reader, Carl Zeiss MicroImaging, Thornwood, N.J.). Data is reported as the net SFC per 5×10^4 cells after subtracting spots induced with the irrelevant HBV peptide.

central memory T cells [2] = assay: Cultured IFN-γ ELISPOT after 10-day in vitro stimulation of PBMC, phase 1/2 NSCLC trial of OSE-2101; parameters: key to net SFC of vaccine positive CTL responses: —, indicates SFC response did not meet criteria and vaccine response was negative; settings: for Mean SFC / No. Positive Responses: 6 NSCLC patients
Description: as §1, §2, §3

central memory T cells [3] = assay: Central memory T cell cultured ELISPOT, phase 2 trial in advanced NSCLC
Description: CTL Immune responses measured though cultured Elispot. The immunogenicity was measured in Phase 2 clinical trial on cryopreserved PBMC from each test sample were thawed in 5% human culture medium (RPMI-1640 medium with 25 mM HEPES, supplemented with 5% human AB serum, 4 mM L-glutamine, 0.5 mM sodium pyruvate, 0.1 mM MEM non-essential amino acids, 100 μg/ml streptomycin, and 100 U/ml penicillin) containing 30 μg/ml DNAase. After centrifugation for 5 minutes at 1200 rpm, the cell pellets were resuspended in 5% human culture medium and washed 2 times. For the central Memory T cell cultured ELISPOT assay, 2×10^6/ml PBMC were placed in replicate wells in a 48-well plates and stimulated for 10 days with 10 μg/ml of each peptide. As a positive control, PBMC were also stimulated with a pool of recall viral peptides. Human rIL2 (10 U/ml) was added to the peptide-stimulated cultures at day 1, day 4 and day 7. After 10 days the stimulated cells were harvested and plated at a concentration of 5×10^4/well. Assay wells also received irradiated autologous PBMC (1×10^5/well) and 10 μg/ml peptide, either the vaccine peptide, irrelevant peptide or positive control peptides. Cells stimulated in vitro with each analog epitope were also tested against the corresponding wild-type epitope.
Data analysis and acceptance criteria. Mean and standard deviation (SD) of spots in replicate wells were calculated in all assays by transferring raw ELISPOT data from each experiment to an Excel-based computer program. Positive vaccine-induced T-cell responses were determined according to the criteria described below.
Acceptance Criteria for peptide-Induced specific T-cell response through central memory T cells: The positive criteria for CTL responses used in the phase 2 trial was identical to the criteria in the phase 1/2 trials which was established prospectively after analyzing the variability of pre-treatment responses in patients against each vaccine epitope and the irrelevant HBV control epitope. A positive peptide-induced CTL/T memory response to a given epitope met all of the following conditions: 1) was greater than 5 SFC above the irrelevant epitope response, 2) was greater than the mean SFC of the irrelevant epitope response, plus 2 SD, and 3) was two-fold greater than the SFC response in the pre-vaccination sample from the same patient, plus 2 SD. The inclusion of “plus two standard deviations” was used to accommodate the assay variability and served to increase the criteria stringency.

IMIGHLVGV [CEA.691H5 A]
Mean SFC (central memory T cells [1]; Week 9): 178.0 SFC per 50,000 cells
Mean SFC (central memory T cells [1]; Week 18): 300.6 SFC per 50,000 cells
net SFC of vaccine positive CTL responses (central memory T cells [1]; colon patient 551, Week 9): 92.7 SFC per 50,000 cells
net SFC of vaccine positive CTL responses (central memory T cells [1]; colon patient 551, Week 18): 68.7 SFC per 50,000 cells
net SFC of vaccine positive CTL responses (central memory T cells [1]; colon patient 601, Week 9): 417.3 SFC per 50,000 cells
net SFC of vaccine positive CTL responses (central memory T cells [1]; colon patient 601, Week 18): 133.7 SFC per 50,000 cells
net SFC of vaccine positive CTL responses (central memory T cells [1]; colon patient 602, Week 9): —
net SFC of vaccine positive CTL responses (central memory T cells [1]; colon patient 602, Week 18): —
net SFC of vaccine positive CTL responses (central memory T cells [1]; colon patient 603, Week 9): 32.7 SFC per 50,000 cells
net SFC of vaccine positive CTL responses (central memory T cells [1]; colon patient 603, Week 18): 8.0 SFC per 50,000 cells
net SFC of vaccine positive CTL responses (central memory T cells [1]; colon patient 604, Week 9): 109.3 SFC per 50,000 cells
net SFC of vaccine positive CTL responses (central memory T cells [1]; colon patient 604, Week 18): 397.3 SFC per 50,000 cells
net SFC of vaccine positive CTL responses (central memory T cells [1]; colon patient 605, Week 9): 65.7 SFC per 50,000 cells
net SFC of vaccine positive CTL responses (central memory T cells [1]; colon patient 605, Week 18): —
net SFC of vaccine positive CTL responses (central memory T cells [1]; colon patient 606, Week 9): 24.3 SFC per 50,000 cells
net SFC of vaccine positive CTL responses (central memory T cells [1]; colon patient 606, Week 18): 45.0 SFC per 50,000 cells
net SFC of vaccine positive CTL responses (central memory T cells [1]; colon patient 607, Week 9): 593.3 SFC per 50,000 cells
net SFC of vaccine positive CTL responses (central memory T cells [1]; colon patient 607, Week 18): 1648.0 SFC per 50,000 cells
net SFC of vaccine positive CTL responses (central memory T cells [1]; colon patient 608, Week 9): —
net SFC of vaccine positive CTL responses (central memory T cells [1]; colon patient 608, Week 18): 18.0 SFC per 50,000 cells
net SFC of vaccine positive CTL responses (central memory T cells [1]; colon patient 609, Week 9): 89.0 SFC per 50,000 cells
net SFC of vaccine positive CTL responses (central memory T cells [1]; colon patient 609, Week 18): 86.0 SFC per 50,000 cells
Mean SFC (central memory T cells [2]; Week 9): 84.2 SFC per 50,000 cells
No. Positive Responses (central memory T cells [2]; Week 9): 2
Mean SFC (central memory T cells [2]; Week 18): 132.7 SFC per 50,000 cells
No. Positive Responses (central memory T cells [2]; Week 18): 3
net SFC of vaccine positive CTL responses (central memory T cells [2]; NSCLC patient 201, Week 9): —
net SFC of vaccine positive CTL responses (central memory T cells [2]; NSCLC patient 201, Week 18): —
net SFC of vaccine positive CTL responses (central memory T cells [2]; NSCLC patient 502, Week 9): —
net SFC of vaccine positive CTL responses (central memory T cells [2]; NSCLC patient 502, Week 18): —
net SFC of vaccine positive CTL responses (central memory T cells [2]; NSCLC patient 504, Week 9): 42.7 SFC per 50,000 cells
net SFC of vaccine positive CTL responses (central memory T cells [2]; NSCLC patient 504, Week 18): 284.0 SFC per 50,000 cells
net SFC of vaccine positive CTL responses (central memory T cells [2]; NSCLC patient 505, Week 9): —
net SFC of vaccine positive CTL responses (central memory T cells [2]; NSCLC patient 505, Week 18): 45.3 SFC per 50,000 cells
net SFC of vaccine positive CTL responses (central memory T cells [2]; NSCLC patient 532, Week 9): 125.7 SFC per 50,000 cells
net SFC of vaccine positive CTL responses (central memory T cells [2]; NSCLC patient 532, Week 18): —
net SFC of vaccine positive CTL responses (central memory T cells [2]; NSCLC patient 651, Week 9): —
net SFC of vaccine positive CTL responses (central memory T cells [2]; NSCLC patient 651, Week 18): 68.7 SFC per 50,000 cells
% of patients with positive CTL/central memory T cell response (central memory T cells [3]; phase 2, month 9): 43%
patients with positive CTL/central memory T cell response / patients tested (central memory T cells [3]; phase 2, month 9): 3/7
% of patients with positive CTL/central memory T cell response (central memory T cells [3]; phase 2, month 12): 50%
patients with positive CTL/central memory T cell response / patients tested (central memory T cells [3]; phase 2, month 12): 2/4
% of patients with positive CTL/central memory T cell response (central memory T cells [3]; phase 2, week 9): 64%
patients with positive CTL/central memory T cell response / patients tested (central memory T cells [3]; phase 2, week 9): 7/11
% of patients with positive CTL/central memory T cell response (central memory T cells [3]; phase 2, week 18): 91%
patients with positive CTL/central memory T cell response / patients tested (central memory T cells [3]; phase 2, week 18): 10/11
% of patients with positive CTL/central memory T cell response (central memory T cells [3]; phase 2, week 30): 33%
patients with positive CTL/central memory T cell response / patients tested (central memory T cells [3]; phase 2, week 30): 2/6
